The values below come from patent US6146868A, “Glucuronoxylomannan (GXM)-O-acetylhydrolase of cryptococcus neoformans and uses thereof” (Research Development Foundation, priority 1999, dated 2000).

The subject of experiment [1] is recombinant glucuronoxylomannan (GXM)-O-acetylhydrolase, SEQ ID No. 31 (His-tagged short clone expressed in E. coli). Briefly: PNP-acetate plate assay, kinetics (Km), recombinant enzyme. It counts as biochemical, mixed unknown bacterial culture from sewage. The note with it: pH 7.2, A405 kinetic reading, hyperbolic regression, read-out: Km for PNP-acetate (KPNPA). The protocol:
PNP-Carboxyl Ester Assay: This assay determines specificity of enzymatic activity for five different PNP-fatty acid esters: PNP-acetate (2 carbon), PNP-propionate (3 carbon), PNP-butyrate (4 carbon), PNP-laurate (12 carbon), and PNP-palmitate (16 carbon). The assay was set up in a 96-well plate and read at 405 n m on a BIO-TEK Ceres 900 plate reader. Each reaction consisted of: 200 μl PBS buffer, pH 7.2; 50 μl PNP-ester solution, 0.77 mM; and 50 μl of enzyme (containing various levels of enzyme) added just prior to reading at 405 nm. Non-enzymic hydrolysis was measured in a solution that consisted of 200 μl PBS buffer, pH 7.2; 50 μl PNP-ester solution, 0.77 mM; and 50 μl PBS, pH 7.2, the buffer replacing the enzyme. […] This assay was read within 30 seconds in a single point manner as the enzyme works rapidly on this substrate.
PNP-Acetate Assay: This assay was routinely used to determine enzymatic activity in samples of recombinant enzyme at the various steps in its expression and purification as described above, but with the PNP-acetate substrate only. This reaction was measured at pH=6.2 to 8.2. […]
Kinetics: Kinetics of the enzyme were investigated through use of the PNP-acetate plate assay and the competition assay described above. The plates were read on the BIO-TEK Ceres 900 plate reader at 405 nm with a kinetic protocol that took readings every 20 seconds for 3 minutes. […]

In experiment [2] the test system is native (wild-type) glucuronoxylomannan (GXM)-O-acetylhydrolase purified from mixed unknown bacterial culture. Put plainly: PNP-acetate plate assay, kinetics (Km), native enzyme. It counts as biochemical, mixed unknown bacterial culture from sewage. The note with it: pH 7.2, A405 kinetic reading, hyperbolic regression, read-out: Km for PNP-acetate (KPNPA). The text has this:
Purification, LysC Degradation and Amino Acid Sequencing of Wild-Type Enzyme: The native GXM O-acetylhydrolase was purified from a mixed unknown bacterial culture that was collected from sewage. The purification was achieved by the following steps: cholate extraction, ammonium sulfate precipitation, molecular sieve chromatography, and ion exchange on a mono Q column followed by a mono S column.
PNP-Carboxyl Ester Assay: This assay determines specificity of enzymatic activity for five different PNP-fatty acid esters: PNP-acetate (2 carbon), PNP-propionate (3 carbon), PNP-butyrate (4 carbon), PNP-laurate (12 carbon), and PNP-palmitate (16 carbon). The assay was set up in a 96-well plate and read at 405 n m on a BIO-TEK Ceres 900 plate reader. Each reaction consisted of: 200 μl PBS buffer, pH 7.2; 50 μl PNP-ester solution, 0.77 mM; and 50 μl of enzyme (containing various levels of enzyme) added just prior to reading at 405 nm. Non-enzymic hydrolysis was measured in a solution that consisted of 200 μl PBS buffer, pH 7.2; 50 μl PNP-ester solution, 0.77 mM; and 50 μl PBS, pH 7.2, the buffer replacing the enzyme. Standard curves were obtained by measurement of the A405 of solutions of known amounts of para-nitrophenol. This assay was read within 30 seconds in a single point manner as the enzyme works rapidly on this substrate. […]

As to `CC(=O)Oc1ccc([N+](=O)[O-])cc1` [PNP-acetate], the Km – broadly, the substrate concentration at which the rate is half of its maximum – in experiment [1] was 1340 µM; in experiment [2], 1260 µM.
